The target of assay [1] is T1, HiBit-BRG1 fusion protein (Homo sapiens, UniProt P51532).
T1 construct: expressed in transfected cells
Briefly: HiBiT-BRG1 cell-based degradation assay (Nano-Glo HiBiT Lytic Detection, 24 h). The following applies: HeLa cells expressing HiBit-BRG1 and LgBit; for DC50: read-out: BRG1 HiBit Degradation IC50; for Dmax: HeLa, top dose 30 μM, read-out: BRG1 HiBit Degradation Maximum measured. An outline of the steps: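 Degradation is scaled from DMSO-treated cells (0%) to cells given 2 μM of a known BRM/BRG1 degrader (100%). HeLa cells stably carrying HiBiT-BRG1 plus LgBiT (5000/well) were lysed with Nano-Glo HiBiT detection reagent, shaken 10 min at RT, and luminescence read.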
A general note: The HiBiT peptide binds its large partner to form an active luciferase.

For assay [2], the target named is T2, HiBit-BRM fusion protein (Homo sapiens, UniProt P51531).
T2 construct: expressed in transfected cells
Briefly: HiBiT-BRM cell-based degradation assay (Nano-Glo HiBiT Lytic Detection, 24 h). To be noted: HeLa cells expressing HiBiT-BRM; for DC50: read-out: BRM HiBit Degradation IC50; for BRM HiBit Degradation Maximum measured: top dose 30 μM. Put shortly: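 Residual HiBiT-BRM in a stable HeLa line was measured by Nano-Glo lytic luminescence after 24 h compound exposure (top final dose 30 μM, 3-fold, 10 points, duplicate). Values are % degradation, scaled between DMSO-treated cells and cells given 2 μM of a known BRM/BRG1 degrader.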

Where a name gives a salt, the structure may show the parent alone.

T1 sequence (P51532 whole entry, the tested form may be a part): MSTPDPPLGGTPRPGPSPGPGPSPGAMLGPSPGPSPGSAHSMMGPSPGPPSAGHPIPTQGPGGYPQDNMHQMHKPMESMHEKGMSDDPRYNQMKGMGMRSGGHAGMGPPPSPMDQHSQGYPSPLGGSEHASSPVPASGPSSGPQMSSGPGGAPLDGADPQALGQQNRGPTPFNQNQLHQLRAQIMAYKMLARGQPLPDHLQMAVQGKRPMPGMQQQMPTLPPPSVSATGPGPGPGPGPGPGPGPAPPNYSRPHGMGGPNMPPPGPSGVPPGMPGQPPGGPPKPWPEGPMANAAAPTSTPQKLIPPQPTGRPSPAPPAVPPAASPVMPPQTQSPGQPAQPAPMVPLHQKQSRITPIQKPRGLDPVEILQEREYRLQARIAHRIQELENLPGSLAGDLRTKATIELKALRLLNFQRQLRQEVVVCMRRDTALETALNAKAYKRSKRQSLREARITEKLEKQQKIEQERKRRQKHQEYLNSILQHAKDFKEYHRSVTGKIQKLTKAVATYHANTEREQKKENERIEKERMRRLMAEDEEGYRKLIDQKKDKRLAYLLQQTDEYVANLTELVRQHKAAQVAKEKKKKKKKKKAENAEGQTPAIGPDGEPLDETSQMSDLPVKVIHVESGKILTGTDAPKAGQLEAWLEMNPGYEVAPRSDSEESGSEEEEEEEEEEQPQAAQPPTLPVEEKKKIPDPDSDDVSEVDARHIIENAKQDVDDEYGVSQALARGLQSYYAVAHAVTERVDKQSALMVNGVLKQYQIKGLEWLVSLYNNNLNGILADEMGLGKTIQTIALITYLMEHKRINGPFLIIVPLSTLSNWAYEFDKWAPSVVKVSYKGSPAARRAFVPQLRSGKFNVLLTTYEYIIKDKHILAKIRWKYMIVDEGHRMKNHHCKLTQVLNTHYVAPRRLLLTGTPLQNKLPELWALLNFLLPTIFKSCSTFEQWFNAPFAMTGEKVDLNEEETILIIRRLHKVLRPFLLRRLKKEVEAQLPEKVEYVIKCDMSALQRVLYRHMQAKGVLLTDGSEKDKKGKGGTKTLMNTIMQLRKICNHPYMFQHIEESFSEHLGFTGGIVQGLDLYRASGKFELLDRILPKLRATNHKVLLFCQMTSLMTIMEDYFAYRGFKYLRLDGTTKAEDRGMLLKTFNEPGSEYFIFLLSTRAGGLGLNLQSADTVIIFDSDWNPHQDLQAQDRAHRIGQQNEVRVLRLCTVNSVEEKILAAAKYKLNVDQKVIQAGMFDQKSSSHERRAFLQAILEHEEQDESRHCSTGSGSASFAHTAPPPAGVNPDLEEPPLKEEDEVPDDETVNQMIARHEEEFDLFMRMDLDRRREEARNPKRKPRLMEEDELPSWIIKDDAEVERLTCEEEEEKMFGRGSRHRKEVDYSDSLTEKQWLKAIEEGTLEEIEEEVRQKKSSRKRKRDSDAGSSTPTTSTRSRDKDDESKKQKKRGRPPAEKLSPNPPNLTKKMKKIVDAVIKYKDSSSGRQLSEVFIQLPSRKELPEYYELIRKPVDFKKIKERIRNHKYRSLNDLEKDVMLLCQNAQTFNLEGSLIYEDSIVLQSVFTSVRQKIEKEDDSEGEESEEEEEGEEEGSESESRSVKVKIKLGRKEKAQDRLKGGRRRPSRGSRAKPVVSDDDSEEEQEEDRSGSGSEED
T2 sequence (P51531 whole entry, the tested form may be a part): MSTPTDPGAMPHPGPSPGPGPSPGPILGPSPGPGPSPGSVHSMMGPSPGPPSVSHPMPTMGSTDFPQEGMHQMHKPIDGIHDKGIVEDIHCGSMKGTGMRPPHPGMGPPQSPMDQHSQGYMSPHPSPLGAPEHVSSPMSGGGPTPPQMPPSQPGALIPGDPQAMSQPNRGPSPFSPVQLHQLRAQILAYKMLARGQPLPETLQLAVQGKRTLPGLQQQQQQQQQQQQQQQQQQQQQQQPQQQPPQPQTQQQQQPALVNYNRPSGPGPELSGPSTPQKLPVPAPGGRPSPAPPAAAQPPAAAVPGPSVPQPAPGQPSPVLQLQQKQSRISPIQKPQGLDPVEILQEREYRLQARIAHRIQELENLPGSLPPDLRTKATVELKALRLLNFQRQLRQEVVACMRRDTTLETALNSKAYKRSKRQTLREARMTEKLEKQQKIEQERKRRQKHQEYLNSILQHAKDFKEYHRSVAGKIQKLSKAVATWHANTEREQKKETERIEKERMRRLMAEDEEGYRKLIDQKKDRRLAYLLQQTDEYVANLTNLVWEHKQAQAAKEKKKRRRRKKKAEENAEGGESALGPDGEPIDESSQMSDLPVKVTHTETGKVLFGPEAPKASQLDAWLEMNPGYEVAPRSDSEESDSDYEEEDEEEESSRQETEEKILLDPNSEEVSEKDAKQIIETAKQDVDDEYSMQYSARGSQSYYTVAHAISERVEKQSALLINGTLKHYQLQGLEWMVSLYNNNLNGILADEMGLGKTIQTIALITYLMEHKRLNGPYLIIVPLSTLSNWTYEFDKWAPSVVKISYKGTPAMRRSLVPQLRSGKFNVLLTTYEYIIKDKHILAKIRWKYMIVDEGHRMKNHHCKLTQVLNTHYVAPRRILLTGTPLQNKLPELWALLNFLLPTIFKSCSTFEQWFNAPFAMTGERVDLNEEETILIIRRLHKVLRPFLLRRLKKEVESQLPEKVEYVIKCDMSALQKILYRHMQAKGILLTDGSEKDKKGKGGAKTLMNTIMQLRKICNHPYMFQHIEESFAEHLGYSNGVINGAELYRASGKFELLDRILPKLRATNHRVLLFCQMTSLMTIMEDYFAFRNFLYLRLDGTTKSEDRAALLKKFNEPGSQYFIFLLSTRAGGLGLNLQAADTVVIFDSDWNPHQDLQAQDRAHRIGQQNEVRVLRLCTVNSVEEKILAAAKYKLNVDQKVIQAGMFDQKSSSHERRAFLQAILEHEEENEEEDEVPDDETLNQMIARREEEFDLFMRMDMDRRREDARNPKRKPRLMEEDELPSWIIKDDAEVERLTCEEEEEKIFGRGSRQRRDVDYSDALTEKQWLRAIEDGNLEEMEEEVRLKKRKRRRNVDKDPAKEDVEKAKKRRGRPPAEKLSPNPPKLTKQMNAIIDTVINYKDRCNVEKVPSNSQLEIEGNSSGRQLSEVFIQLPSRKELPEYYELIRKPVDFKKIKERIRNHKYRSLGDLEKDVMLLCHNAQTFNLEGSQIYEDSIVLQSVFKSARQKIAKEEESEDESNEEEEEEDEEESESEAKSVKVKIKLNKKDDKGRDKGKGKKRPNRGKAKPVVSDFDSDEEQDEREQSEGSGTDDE

In the case of `Cc1ncsc1-c1ccc(CNC(=O)[C@@H]2C[C@@H](O)CN2C(=O)[C@@H](NC(=O)COCCOCCNC(=O)CN(C)c2cc(-c3cccc(-c4csc(NC(=O)CNC(=O)c5ccn(S(C)(=O)=O)c5)n4)c3)ccn2)C(C)(C)C)cc1` [Compound 94, N-(2-((4-(3-(2-(((S)-13-((2S,4R)-4-hydroxy-2-((4-(4-methylthiazol-5-yl)benzyl)carbamoyl)pyrrolidine-1-carbonyl)-14,14-dimethyl-2,11-dioxo-6,9-dioxa-3,12-diazapentadecyl)(methyl)amino)-pyridin-4-yl)phenyl)thiazol-2-yl)amino)-2-oxoethyl)-1-(methylsulfonyl)-1H-pyrrole-3-carboxamide], in assay [1], the DC50 was greater than 10 µM and the Dmax was less than 50%. Also, in assay [2], the DC50 is greater than 10 µM and the “BRM HiBit Degradation Maximum measured” value is recorded as “C (‘C’ = Maximum degradation <50%)”.

Take `CS(=O)(=O)n1ccc(C(=O)NCC(=O)Nc2nc(-c3cccc(-c4ccnc(C5(C(=O)NCCS(=O)(=O)CCNc6cccc7c6C(=O)N(C6CCC(=O)NC6=O)C7=O)CC5)c4)c3)cs2)c1` (stereo not drawn) [Compound 102, N-[2-[[4-[3-[2-[1-[2-[2-[[2-(2,6-dioxo-3-piperidyl)-1,3-dioxo-isoindolin-4-yl]amino]ethylsulfonyl]ethylcarbamoyl]-cyclopropyl]-4-pyridyl]phenyl]thiazol-2-yl]amino]-2-oxo-ethyl]-1-methylsulfonylpyrrole-3-carboxamide]: in assay [1], the DC50 lay in the range of 0.1 to 1 µM and the Dmax was in the range of 50 to 75%. Also, in assay [2], the DC50 was greater than 10 µM and the “BRM HiBit Degradation Maximum measured” value is “C (‘C’ = Maximum degradation <50%)”.

On to `CS(=O)(=O)n1ccc(C(=O)N[C@@H](COCc2ccc(C(=O)N3CCN(CCCOc4ccc5c(c4)C(=O)N(C4CCC(=O)NC4=O)C5=O)CC3)cc2)C(=O)Nc2nc(-c3ccccc3)cs2)c1` (stereo partly drawn) [Compound 235, (2S)-3-([4-[4-(3-[[2-(2,6-dioxopiperidin-3-yl)-1,3-dioxoisoindol-5-yl]oxy]propyl)piperazine-1-carbonyl]phenyl]methoxy)-2-[(1-methanesulfonylpyrrol-3-yl)formamido]-N-(4-phenyl-1,3-thiazol-2-yl)propanamide], for which, in assay [1], the DC50 was greater than 10 µM and the Dmax is less than 50%. In assay [2], the DC50 was greater than 10 µM and the “BRM HiBit Degradation Maximum measured” value was “C (‘C’ = Maximum degradation <50%)”.

With `CS(=O)(=O)n1ccc(C(=O)N[C@@H](COCc2ccc(C(=O)N3CCC(CCCCN4CCN(c5ccc6c(c5)C(=O)N(C5CCC(=O)NC5=O)C6=O)CC4)CC3)cc2)C(=O)Nc2nc(-c3ccccc3)cs2)c1` (stereo partly drawn) [Compound 195, N-((2S)-3-((4-(4-(4-(4-(2-(2,6-dioxopiperidin-3-yl)-1,3-dioxoisoindolin-5-yl)piperazin-1-yl)butyl)piperidine-1-carbonyl)benzyl)oxy)-1-oxo-1-((4-phenylthiazol-2-yl)amino)propan-2-yl)-1-(methylsulfonyl)-1H-pyrrole-3-carboxamide formate], in assay [1], the DC50 is greater than 10 µM and the Dmax was less than 50%. In assay [2], the DC50 was greater than 10 µM and the “BRM HiBit Degradation Maximum measured” value is listed as “C (‘C’ = Maximum degradation <50%)”.

With `CS(=O)(=O)n1ccc(C(=O)N[C@@H](CCOCCCC(=O)NCCOCCOCCNC(=O)COc2ccc3c(c2)C(=O)N(C2CCC(=O)NC2=O)C3=O)C(=O)Nc2nc(-c3ccccc3)cs2)c1` (stereo partly drawn) [Compound 274, (2S)-4-[3-[(2-[2-[2-(2-[[2-(2,6-dioxopiperidin-3-yl)-1,3-dioxoisoindol-5-yl]oxy]acetamido)ethoxy]ethoxy]ethyl)carbamoyl]propoxy]-2-[(1-methanesulfonylpyrrol-3-yl)formamido]-N-(4-phenyl-1,3-thiazol-2-yl)butanamide], in assay [1], the DC50 is greater than 10 µM and the Dmax is less than 50%. Further, in assay [2], the DC50 was greater than 10 µM and the “BRM HiBit Degradation Maximum measured” value is given as “C (‘C’ = Maximum degradation <50%)”.

On to `Cc1ncsc1-c1ccc(CNC(=O)[C@@H]2C[C@@H](O)CN2C(=O)[C@@H](NC(=O)CCCCCCC(=O)NCc2ccc(COC[C@H](NC(=O)c3ccn(S(C)(=O)=O)c3)C(=O)Nc3nc(-c4ccccc4)cs3)cc2)C(C)(C)C)cc1` [Compound 210, N-[(2S)-1-[(2S,4R)-4-hydroxy-2-([[4-(4-methyl-1,3-thiazol-5-yl)phenyl]methyl]carbamoyl)pyrrolidin-1-yl]-3,3-dimethyl-1-oxobutan-2-yl]-N′-[(4-[[(2S)-2-[(1-methanesulfonylpyrrol-3-yl)formamido]-2-[(4-phenyl-1,3-thiazol-2-yl)carbamoyl]ethoxy]methyl]phenyl)methyl]octanediamide], for which, in assay [1], the DC50 is greater than 10 µM and the Dmax was less than 50%. Further, in assay [2], the DC50 was greater than 10 µM and the “BRM HiBit Degradation Maximum measured” value was “C (‘C’ = Maximum degradation <50%)”.

Regarding `Cc1ncsc1-c1ccc(CNC(=O)[C@@H]2C[C@@H](O)CN2C(=O)[C@@H](NC(=O)COCC(=O)N2CCN(c3cc(-c4cccc(-c5csc(NC(=O)CNC(=O)c6ccn(S(C)(=O)=O)c6)n5)c4)ccn3)CC2)C(C)(C)C)cc1` [Compound 72, N-[2-[[4-[3-[2-[4-[2-[2-[[(1S)-1-[(2S,4R)-4-hydroxy-2-[[4-(4-methylthiazol-5-yl)phenyl]methylcarbamoyl]pyrrolidine-1-carbonyl]-2,2-dimethyl-propyl]amino]-2-oxo-ethoxy]acetyl]piperazin-1-yl]-4-pyridyl]phenyl]thiazol-2-yl]amino]-2-oxo-ethyl]-1-methylsulfonyl-pyrrole-3-carboxamide], in assay [1], the DC50 was greater than 10 µM and the Dmax is less than 50%. Moreover, in assay [2], the DC50 was greater than 10 µM and the “BRM HiBit Degradation Maximum measured” value is recorded as “C (‘C’ = Maximum degradation <50%)”.

Turning to `CS(=O)(=O)n1ccc(C(=O)NCC(=O)Nc2nc(-c3cccc(-c4ccnc(C5(C(=O)N6CCN(CCOc7ccc8c(c7)C(=O)N(C7CCC(=O)NC7=O)C8=O)CC6)CC5)c4)c3)cs2)c1` (stereo not drawn) [Compound 150, N-(2-((4-(3-(2-(1-(4-(2-((2-(2,6-dioxopiperidin-3-yl)-1,3-dioxoisoindolin-5-yl)oxy)ethyl)piperazine-1-carbonyl)cyclopropyl)pyridin-4-yl)phenyl)thiazol-2-yl)amino)-2-oxoethyl)-1-(methylsulfonyl)-1H-pyrrole-3-carboxamide], in assay [1], the DC50 is 0.1 to 1 µM and the Dmax is greater than 75%. Besides, in assay [2], the DC50 is 0.1 to 1 µM; the “BRM HiBit Degradation Maximum measured” value was “B (‘B’ = Maximum degradation ≥50% and ≤75%)”.

In the case of `CS(=O)(=O)n1ccc(C(=O)N[C@@H](COCc2ccc(C(=O)N3CC(Oc4ccc5c(c4)C(=O)N(C4CCC(=O)NC4=O)C5=O)C3)cc2)C(=O)Nc2nc(-c3ccccc3)cs2)c1` (stereo partly drawn) [Compound 194, N-((2S)-3-((4-(3-((2-(2,6-dioxopiperidin-3-yl)-1,3-dioxoisoindolin-5-yl)oxy)azetidine-1-carbonyl)benzyl)oxy)-1-oxo-1-((4-phenylthiazol-2-yl)amino)propan-2-yl)-1-(methylsulfonyl)-1H-pyrrole-3-carboxamide], in assay [1], the DC50 was greater than 10 µM and the Dmax is less than 50%. In assay [2], the DC50 is greater than 10 µM and the “BRM HiBit Degradation Maximum measured” value is recorded as “C (‘C’ = Maximum degradation <50%)”.

As for `CS(=O)(=O)n1ccc(C(=O)NCC(=O)Nc2nc(C3CCCN(C(=O)CCN4CCN(c5ccc6c(c5)C(=O)N(C5CCC(=O)NC5=O)C6=O)CC4)C3)cs2)c1` (stereo not drawn) [Compound 146, N-{4-[1-(3-{4-[2-(2,6-dioxopiperidin-3-yl)-1,3-dioxo-2,3-dihydro-1H-isoindol-5-yl]piperazin-1-yl}propanoyl)piperidin-3-yl]-1,3-thiazol-2-yl}-2-[(1-methanesulfonyl-1H-pyrrol-3-yl)formamido]acetamide formate], in assay [1], the DC50 is greater than 10 µM and the Dmax was less than 50%. Moreover, in assay [2], the DC50 is greater than 10 µM and the “BRM HiBit Degradation Maximum measured” value is on record as “C (‘C’ = Maximum degradation <50%)”.

For `CS(=O)(=O)n1ccc(C(=O)N[C@@H](COCc2ccc(C(=O)NCCC3CCN(c4ccc5c(c4)C(=O)N(C4CCC(=O)NC4=O)C5=O)CC3)cc2)C(=O)Nc2nc(-c3ccccc3)cs2)c1` (stereo partly drawn) [Compound 245, N-(2-[1-[2-(2,6-dioxopiperidin-3-yl)-1,3-dioxoisoindol-5-yl]piperidin-4-yl]ethyl)-4-[[(2S)-2-[(1-methanesulfonylpyrrol-3-yl)formamido]-2-[(4-phenyl-1,3-thiazol-2-yl)carbamoyl]ethoxy]methyl]benzamide], in assay [1], the DC50 is less than 0.1 µM and the Dmax is greater than 75%. Moreover, in assay [2], the DC50 was less than 0.1 µM and the “BRM HiBit Degradation Maximum measured” value is reported as “A (‘A’ = Maximum degradation >75%)”.

On to `Cc1ncsc1-c1ccc(CNC(=O)[C@@H]2C[C@@H](O)CN2C(=O)[C@@H](NC(=O)CCCCCCCNC(=O)CN(C)c2cc(-c3cccc(-c4csc(NC(=O)CNC(=O)c5ccn(S(C)(=O)=O)c5)n4)c3)ccn2)C(C)(C)C)cc1` [Compound 88], for which, in assay [1], the DC50 was less than 0.1 µM and the Dmax lay within 50 to 75%. For the same molecule, in assay [2], the DC50 is less than 0.1 µM; the “BRM HiBit Degradation Maximum measured” value was “B (‘B’ = Maximum degradation ≥50% and ≤75%)”.

The values above are taken from US12662479B2 (Foghorn Therapeutics Inc., priority 2020, dated 2026).
